From publication PMC10637926 (Heliyon, 2023)

Molecular target: AChE enzyme from Electrophorus electricus (electric eel) (Electrophorus electricus, UniProt O42275)
Test: In vitro AChE inhibition, Ellman spectrophotometric procedure
Assay type: biochemical
Settings: for inhibition at 100 µM: read-out: AChE inhibition, mean of R1-R3; for IC50: IC50 against AChE, dose dependent assay, 412 nm

Sequence of AChE enzyme from Electrophorus electricus (electric eel) (O42275 24-633): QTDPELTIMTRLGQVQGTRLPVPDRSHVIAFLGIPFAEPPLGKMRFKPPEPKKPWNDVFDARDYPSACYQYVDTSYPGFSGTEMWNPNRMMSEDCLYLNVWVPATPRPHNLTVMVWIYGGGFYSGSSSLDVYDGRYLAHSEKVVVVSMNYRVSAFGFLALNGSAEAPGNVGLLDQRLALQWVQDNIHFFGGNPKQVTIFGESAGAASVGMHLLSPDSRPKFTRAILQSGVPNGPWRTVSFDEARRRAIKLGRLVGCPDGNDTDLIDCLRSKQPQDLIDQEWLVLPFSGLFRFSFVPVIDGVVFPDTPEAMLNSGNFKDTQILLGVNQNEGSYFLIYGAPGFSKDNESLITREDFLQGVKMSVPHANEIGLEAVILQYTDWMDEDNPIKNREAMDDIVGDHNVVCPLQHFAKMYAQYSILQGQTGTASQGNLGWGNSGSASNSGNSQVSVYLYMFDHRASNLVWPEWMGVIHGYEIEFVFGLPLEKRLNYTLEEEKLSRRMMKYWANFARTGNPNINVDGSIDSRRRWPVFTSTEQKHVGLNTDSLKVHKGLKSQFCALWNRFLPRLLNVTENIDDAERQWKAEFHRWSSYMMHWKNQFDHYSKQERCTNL

Row | Compound | inhibition at 100 µM [%] | IC50 [µM]
1 | O=c1c(O)c(-c2ccc(O)c(O)c2)oc2cc(O)cc(O)c12 [Quercetin] | 85.7 | –
2 | O=c1cc(-c2ccc(O)cc2)oc2cc(O)cc(O)c12 [Apigenin] | 80 | 13.8
3 | COc1c(O)cc(O)c2c(=O)cc(-c3ccccc3)oc12 [Wogonin] | 80.3 | 15.5
